In patent publication US8211646B1, “Methods of treating ovarian cancer by modulating SnoN” (University of South Florida, priority 2008, dated 2012):

Assays:
Type in all cases: cell-based
SnoN = assay: Western analysis of SnoN protein levels; details: for concentration at which induction of SnoN occurred: 18 hours
Description: (§1) Proteins were resolved on an 8%, 12%, or 15% SDS-PAGE gel (as appropriate) and electrophoretically transferred to polyvinyldifluoride (PVDF) membranes. After blocking with 5% (w/v) milk in TBST (Tris-Buffered Saline containing 0.1% Tween-20) for one hour at room temperature, membranes were incubated with primary antibodies (at appropriate dilution) overnight at 4° C., followed by extensive washing and incubation for 1 hour with the appropriate horseradish peroxidase-conjugated secondary antibodies (BioRad, Hercules, Calif.). Blots were washed extensively. A rabbit polyclonal EVI1 antibody was obtained (1:3000 dilution, St. Jude's Children's Hospital, Memphis, Tenn.). SnoN rabbit polyclonal (1:1000 dilution), PML, and p21 SMURF2 rabbit polyclonal (1:500 dilution), MRP1 mouse monoclonal (1:500 dilution) and GAPDH mouse monoclonal (1:250 dilution) antibodies were obtained from Santa Cruz Biotechnology (Santa Cruz, Calif.). TGFβRII rabbit polyclonal (1:1000 dilution) antibody was obtained from Strategic Diagnostics (Newark, Del.). Smad2/3 rabbit polyclonal (1:1000 dilution), Beclin-1 rabbit polyclonal (1:1000 dilution), AKT rabbit polyclonal (1:1000 dilution), TAK1 rabbit polyclonal (1:1000 dilution), PARP rabbit polyclonal (1:1000 dilution), Beclin-1 rabbit polyclonal (1:1000 dilution), caspase-3 rabbit polyclonal (1:1000) which detects the pro-caspase form, and ATG5 rabbit polyclonal (1:1000 dilution), LC3-II rabbit polyclonal (1:1000 dilution) antibodies were obtained from Cell Signaling Technology (Danvers, Mass.). The HSP27 mouse monoclonal (1:1000 dilution) antibody was obtained from Stressgen (Ann Arbor, Mich.). Blots were developed using chemiluminescence substrates (Amersham Piscataway, N.J. or BioRad, Hercules, Calif.). Monoclonal PAI-1 antibody was obtained from BD Pharmingen. PSMAD2, total SMAD2/3, p-ERK, p-AKT, and total AKT antibodies were obtained from Cell Signaling Technology. A monoclonal antibody against Arkadia was obtained from Abnova (Taiwan).
(§2) Densitometric analysis was performed using the HP Scanjet 5590 and the Image J program (Image Processing and Analysis in Java, NIH Image Software). Bands were selected and the intensity values were normalized to those for GAPDH. The values are presented as fold-changes relative to control siRNA treated cells.
The clinical inhibitors As2O3, geldanamycin (17-AAG) (dissolved in dimethylsulfoxide [DMSO]), and MG132 (dissolved in DMSO) were obtained from Sigma-Aldrich (St. Louis, Mo.), Fisher Scientific (Pittsburgh, Pa.), and Alexis Biochemicals (Farmingdale, N.Y.), respectively. N-acetyl-L-cysteine (NAC; dissolved in media) and Bortezomib (PS-341; dissolved in DMSO) were obtained from Fisher Scientific. 3-Methyladenine (3-MA; dissolved in media) was obtained from MP Biomedicals (Solon, Ohio). Tiron (4,5-Dihydroxy-1,3-benzenedisulfonic acid, dissolved in media) was obtained from Fisher Scientific. zVAD-fmk (dissolved in DMSO) and bafilomycin A (dissolved in DMSO) was obtained from Axxora LLC (San Diego, Calif.). Bovine catalase was obtained from Sigma-Aldrich. HBED and Mn TBAP was obtained from ENZO Life Sciences (Farmingdale, N.Y.). Ovarian cells were plated in 6-well plates at 250,000 cells per well and grown in complete medium. […] For control cells, DMSO (a final concentration of <0.5%) was added to compare appropriately to drugs dissolved in DMSO. After the appropriate incubation time (6 or 18 hours), cell lysates were collected, protein quantified, and SDS-PAGE/western analysis was performed. In addition, for selected studies, RNA was isolated, quantified, and used for qPCR analysis.

[1] = system: EVI1 forms (MDS1/EVI1, EVI1, EVI1^Del190-515)
Description: as §1, §2
(§3) The clinical inhibitors As2O3, geldanamycin (17-AAG) (dissolved in dimethylsulfoxide [DMSO]), and MG132 (dissolved in DMSO) were obtained from Sigma-Aldrich (St. Louis, Mo.), Fisher Scientific (Pittsburgh, Pa.), and Alexis Biochemicals (Farmingdale, N.Y.), respectively. N-acetyl-L-cysteine (NAC; dissolved in media) and Bortezomib (PS-341; dissolved in DMSO) were obtained from Fisher Scientific. 3-Methyladenine (3-MA; dissolved in media) was obtained from MP Biomedicals (Solon, Ohio). Tiron (4,5-Dihydroxy-1,3-benzenedisulfonic acid, dissolved in media) was obtained from Fisher Scientific. zVAD-fmk (dissolved in DMSO) and bafilomycin A (dissolved in DMSO) was obtained from Axxora LLC (San Diego, Calif.). Bovine catalase was obtained from Sigma-Aldrich. HBED and Mn TBAP was obtained from ENZO Life Sciences (Farmingdale, N.Y.). Ovarian cells were plated in 6-well plates at 250,000 cells per well and grown in complete medium. The following day, the cells were treated with 5 μM MG132, As2O3 (between 2-50 μM), 17-AAG (between 2-50 μM), NAC (Fisher Scientific, between 25 μM to 1 mM), Tiron (between 25 μM to 1 mM), 3-MA (0.1 mM to 10 mM), or zVAD-fmk (25 μM to 100 μM). For control cells, DMSO (a final concentration of <0.5%) was added to compare appropriately to drugs dissolved in DMSO. After the appropriate incubation time (6 or 18 hours), cell lysates were collected, protein quantified, and SDS-PAGE/western analysis was performed. In addition, for selected studies, RNA was isolated, quantified, and used for qPCR analysis.

[2] = system: TAK1, SMAD2/3, TGFβRII, AKT, phospho-SMAD2; assay: Western analysis of other TGFβ signaling mediators
Description: as §1, §2, §3

[3] = HEY and OVCA429, 18 hours, increasing doses

## Arsenic trioxide [As2O3]
SnoN; [3]
  SnoN/SkiL protein levels: significantly increased
SnoN; HEY and SKOV3 cells
  concentration at which induction of SnoN occurred: > 25 µM
SnoN; HEY, time course
  time of As2O3 treatment at which induction of SnoN was seen: 9 h
SnoN; T80 cells
  concentration at which induction of SnoN occurred: 10 µM
[1]; 5 μM As2O3
  EVI1 and EVI1^Del190-515 protein expression: reduced
  MDS1/EVI1 protein expression: remained unchanged
[1]; [3]
  protein levels of EVI1 forms: markedly decreased
[2]; [3]
  TAK1, SMAD2/3, TGFβRII and AKT protein: markedly reduced
[2]; HEY, 18 hours As2O3
  EVI1, TAK1, SMAD2/3, TGFβRII expression levels: Dramatic decreases
